Values joined by “and” are separate entries in the source; they are usually repeats but may differ in a detail not shown here. Equal entries are not always repeated. “Also recorded” adds a separate entry of the source.
What was measured:
HBMEC cells = assay: ELISA Cell Death test for induction of the apoptosis on the HBMEC cells; type: cell-based, human; details: basal medium
Method: The apoptosis process is accompanied by the fragmentation of DNA and thus generates soluble nucleosomes (cytoplasmic histones associated with fragmented DNA), which can be metered by an immunoenzymatic method, ELISA Cell Death Plus (Enzyme-Linked ImmunoSorbent Assay) Kit (Roche Molecular Diagnostics, France) according to the recommendations of the supplier. The HBMEC cells were inoculated in a 24-well plate at the density of 5.10^3 cells/wells and allowed to stand for 24 hours. The cells are cultivated in a basal medium, i.e., in the absence of growth factors, which is changed before they are exposed to various treatments for 24 hours. They are then recovered and then centrifuged with 200 g for 5 minutes. The cells are then counted, and then adjusted to 3.10^4 cells/mL in PBS. A new centrifuging with 200 g is carried out for 10 minutes. The supernatant is removed, and the cell pellet is taken up in 200 μl of lysis buffer before incubation for 30 minutes at ambient temperature. After a new centrifuging for 10 minutes at 1,400 rpm, 20 μL of supernatant is distributed in wells coated with streptavidin and each condition is carried out in duplicate. 80 μL of the immunoreagent solution is added into each well. […] The reaction is then halted by adding 100 μL of ABTS stop solution, and the results are then analyzed using a 405-nm plaque reader. […]

[1] = tested on: tumors obtained from U87-MG grafts on the CAM; assay: Experimental tumors from U87-MG grafts on the CAM: vascularization, Ki-67, vimentin; type: in vivo, chicken embryo; details: for Tumor vascularization, density of the vessels that irrigate the tumor (in words): topical 250 μg/mL; for Quantification of the Ki-67 labeling, Center 1 / Quantification of the Ki-67 labeling, Center 2 / Quantification of the Ki-67 labeling, Edge 1 / Quantification of the Ki-67 labeling, Edge 2: treated 48 hours; for Quantification of the Ki-67 labeling, Center 1 / Quantification of the Ki-67 labeling, Center 2: tumor center; for Quantification of the Ki-67 labeling, Edge 1 / Quantification of the Ki-67 labeling, Edge 2: tumor edge
Method: To obtain a tumor, the U87-MG cells are inoculated at a rate of 200,000 cells in 75-cm^2 flasks in the presence of a basal medium. A volume that contains 4.10^6 cells is then sampled, and after centrifuging for 5 minutes with 311 g, the supernatant is eliminated, and the cells are resuspended in 20 μL of differential medium that is deposited in the center of a silicone ring that was previously applied on the CAM of an embryo at ED9. Once the grafting is done, the embryo is set out to incubate. At ED11, the tumors can be observed under a MZFL3 binocular (Leica, Paris, France). At this stage, the tumors are either treated topically (apical part of the tumor) by 30 μL of the oligopeptide according to the invention at 250 μg/mL or else by 30 μL of sterile distilled water up to stage ED13. The tumors are then sampled, and cryosections are produced to make possible immunohistochemical analyses. […] The macroscopic observations of tumors as well as the diffusion of fluorescein into the vessels are made with a fluorescence binocular (MZFL3, Leica, France).
A volume that contains 4.10^6 cells is then sampled and after centrifuging for 5 minutes with 300 g, the supernatant is eliminated, and the cells are resuspended in 20 μL of differential medium that is deposited in the center of a silicone ring that was previously applied on the CAM of an embryo at ED9. Once the grafting has been done, the embryo is set out to incubate.
At ED11, the tumors can be observed under a MZFL3 binocular (Leica, Paris, France), and it is possible to track the change in the tumor growth up to ED14.
The tumors that are developed on the CAM are observed on the chorioallantoic membrane using a MZFL3-type binocular (Leica, France) before being sampled.
The vascular endothelium of the vessels of a chicken is labeled using a lectin, SNA-1 (Sambuccus Nigra Agglutinin-1, Vector Laboratories), coupled to FITC (fluorescein isothiocyanate).
After 10 minutes of attachment with 200 μL of 4% PBS 1X-PFA at ambient temperature, the sections are incubated with a solution of 0.05% TBS 1X-Tween-0.1% Trypsin, pH 7.6, for 10 minutes. They are then washed 3 times in PBS 1X, and 100 μL of a dilution with 1/200th of the SNA-1 lectin in a solution of 0.05% TBS 1X-Tween with pH 7.6 is applied for 1 hour. After washing cycles (the last of which is carried out with distilled water), the slides are then mounted as described in the preceding paragraph and observed with a fluorescence microscope. Counts of vessels were made from photos with a magnification ×100 and in a marginal zone spreading 600 μm from the edge of the tumor. An ANOVA-type statistical test was then carried out to validate the relevance of the effect observed. The SNA-1 lectin specifically labels the chicken endothelial cells that constitute the vascular wall.
The tumors are attached in 4% PBS 1X-PFA (24 hours) and then dehydrated in absolute ethanol and then in pure toluene and next are enclosed and preserved in a paraffin block. 4-μm sections are made from a microtome and deposited on Superfrost plus slides, and then dried in an oven at 50° C. for one night.
To carry out the immunolabeling, the sections are dewaxed and then rehydrated by baths of decreasing concentrations of ethanol and then rinsed in PBS 1X.
So as to unmask the antigenic sites, the slides are incubated in a citrate buffer with pH 7 (200 μM of citric acid; 9.8 mmol of sodium citrate) and undergo a heating cycle (4×5 minutes at 750 W in the microwave). The endogenic peroxidases are inhibited by carrying out a 10-minute bath in methanol-5%H2O2. After 3 washing cycles, the saturation of PBS-3% BSA and then the incubation with the anti-Ki67 antibody are carried out. After rinsing with PBS 1X, an HRP-conjugated secondary antibody is applied for 1 hour at ambient temperature. […] A counter-staining is carried out in hematoxylin, and the sections are mounted in an aqueous solution before being observed with a Leica DMRX microscope.

[2] = tested on: secretions of VEGFA via the U87-MG; assay: ELISA metering of VEGF in the supernatant of U87-MG; type: cell-based; details: for VEGF ELISA reading, Val1 / VEGF ELISA reading, Val2 / VEGF Mean / VEGF pg/mL1 / VEGF pg/mL2 / VEGF ELISA reading, Mean: supernatant of U87-MG (SN U87) after treatment; for VEGF ELISA reading, Mean: mean of Val1 and Val2
From the text: FIGS. 2A to 2C represent analysis results of soluble factors that occur in angiogenesis: • Supernatants of U87-MG cells were studied by proteome array (FIGS. 2A and 2B) for the research of proteins involved in angiogenesis, in the presence of sterile water, TSP-1 and the oligopeptide according to the invention. The secretions of VEGFA via the U87-MG in the medium after treatments with sterile water, TSP-1 and the oligopeptide according to the invention, were metered by ELISA from supernatants (FIG. 2C).

[3] = U87-MG tumor on CAM, listed as TSP1

thrombospondin 1 [TSP, reference compound]
Protection of HBMEC from apoptosis (in words) (HBMEC cells): this effect is not observed | Tumor vascularization, density of the vessels that irrigate the tumor (in words) ([1]; U87-MG tumor on CAM): produces the same effects but to a lesser degree | Quantification of the Ki-67 labeling, Center 1 [1, 3]: 300 and 233 | Quantification of the Ki-67 labeling, Center 2 [1, 3]: 292 and 350 | Quantification of the Ki-67 labeling, Edge 1 [1, 3]: 227 and 286 | Quantification of the Ki-67 labeling, Edge 2 [1, 3]: 314 and 228 | VEGF ELISA reading, Val1 [2]: 0.5 | VEGF ELISA reading, Val2 [2]: 0.518 | VEGF Mean [2]: 636.2 pg/mL | VEGF pg/mL1 [2]: 621.2 pg/mL | VEGF pg/mL2 [2]: 651.2 pg/mL | VEGF ELISA reading, Mean [2]: 0.509

—W—S-G-W—S—S—C—S—R—S—C-G- (WSGWSSCSRSCG; Oligopeptide derived from SCO-Spondin) [NX]
Protection of HBMEC from apoptosis (in words) (HBMEC cells): protects the HBMEC human endothelial cells from the apoptosis at a level similar to the VEGF | Time to disappearance of pinkish color (capillaries on the surface of the tumor) ([1]; CAM tumors 1 to 2 mm in diameter): ≤ 24 h | SNA-1 labeling of vessels on tumor sections ([1]; U87-MG tumor on CAM): the SNA-1 labeling disappears more specifically into the zone that is close to the surface of the tumor | Tumor vascularization, density of the vessels that irrigate the tumor (in words) ([1]; U87-MG tumor on CAM, listed as oligopeptide according to the invention): more effective than the TSP-1; also recorded: significant reduction in the density of the vessels that irrigate the tumor | Quantification of the Ki-67 labeling, Center 1 ([1]; U87-MG tumor on CAM): 355.5 and 369 | Quantification of the Ki-67 labeling, Center 2 ([1]; U87-MG tumor on CAM): 383.5 and 370 | Quantification of the Ki-67 labeling, Edge 1 ([1]; U87-MG tumor on CAM): 165 and 184 | Quantification of the Ki-67 labeling, Edge 2 ([1]; U87-MG tumor on CAM): 172 and 153 | Tumor cells expressing the vimentin ([1]; U87-MG tumor on CAM, vimentin/SNA-1 co-labeling): reduction in the number of differentiated tumor cells expressing the vimentin | Ki-67 labeling of tumor (in words) ([1]; tumors in the CAM model, peripheral zone): the peripheral zone does not express the Ki67 marker | VEGF-A in the supernatant of U87-MG (in words) [2]: reduction in VEGF-A | VEGF ELISA reading, Val1 [2]: 0.333 | VEGF ELISA reading, Val2 [2]: 0.266 | VEGF Mean [2]: 287 pg/mL | VEGF pg/mL1 [2]: 342.8 pg/mL | VEGF pg/mL2 [2]: 231.2 pg/mL | VEGF ELISA reading, Mean [2]: 0.2995
